Measurements: US20160349268A1, “STEPWISE ASSEMBLED CAPTURE COMPOUNDS COMPRISING A CLEAVABLE FUNCTION AND METHOD FOR ISOLATING AND/OR CHARACTERIZING BIOMOLECULES OR BIOMOLECULE FRAGMENTS, IN PARTICULAR PROTEINS OR PROTEIN FRAGMENTS, OF COMPLEX MIXTURES” (CAPROTEC BIOANALYTICS GMBH, priority 2014, published 2016)
One block for each compound: values may come before it.

Legend:
Format in all cases: physicochemical
[1] = Cleavage reaction of photo-reacted compound 11 (12) with HCl / 2-nitrobenzhydrazide, LC-MS; conditions: for Area/a.u. (LC-MS EIC peak): 45 μM 12, 1 h room temperature
Procedure: A solution of 75 μL 56 μM 11 (CPT727, Capture Compound bearing tetrazine as sorting function and a chemically cleavable photo-reactivity function) in 50% acetonitrile was irradiated with UV light (λmax=310 nm) for 5 min at 4° C. in the caproBox to activate the reactivity function yielding 12 (Scheme 12).
Cleavage of the photo-reacted reactivity function (15) from 12 yielding also 17 as a product (Scheme 13) was investigated under several conditions summarized in Table 5. The reaction was performed in a final volume of 10 μl for 1 h at room temperature. Each reaction mixture contained 8 μl of the above described solution of 12 (45 μM final concentration), 1 μl 100 mM or 10 mM 2-nitrobenzhydrazide in DMSO or just DMSO and 1 μl 100 mM or 10 mM HCl in water or just water. Analysis was performed by LC-MS. Integration of peak areas corresponding to the respective species is included into Table 5.

[2] = Cleavage of 1 (CPT600) after photo-reaction in solution (UV irradiation, HCl treatment, RP-HPLC UV/MS); conditions: BPC + All MS
Procedure: In a 100 μL PCR tube, 20 μL 73 μM 1 (CPT600) was irradiated at 4° C. for 5 min in the caproBox (310 nm version, caprotec bioanalytics GmbH, Berlin, Germany). 1.7 μL 37% HCl was added, mixed and the solution was incubated on a thermoshaker at 37° C. for 2 h. Then 100 μL Milli-Q water and 9 μL 2N NaOH were added and mixed. The resulting solution as analyzed by RP-HPLC coupled to a UV detector and a mass spectrometer (FIG. 6 and Table 2a) as described in example 1. As a control, the same sample but with only very brief incubation under acidic conditions (r.t. for about 10 s instead of 37° C. for 2 h) was prepared (FIG. 7 and Table 2b).

[3] = Cleavage of 1 (CPT600) after photo-reaction on CPG-pN3, with CPG-Ac and in-solution controls; set-up: Area: unit not given here
Procedure: 20 μL 10 mg/mL 1 (CPT600)-loaded CPG-pN3 from example 1 were transferred into a 100 μL PCR tube, centrifuged, the supernatant was discarded and 20 μL in water was added. The suspension was irradiated at 4° C. for 5 min (with re-suspending every 30 s) in the caproBox (310 nm version, caprotec bioanalytics GmbH, Berlin, Germany). 1.7 μL 37% HCl was added, mixed and the solution was incubated on a thermoshaker at 37° C. for 2 h. Then 100 μL Milli-Q water and 9 μL 2N NaOH were added and mixed. After centrifugation, the resulting supernatant was analyzed by RP-HPLC coupled to a UV detector and a mass spectrometer as described in example 1. As a control, the same sample but with only very brief incubation under acidic conditions (r.t. for about 10 s instead of 37° C. for 2 h) was prepared.
Further controls included using 1 (CPT600)-treated CPG-Ac from example 1 (short and long acid treatment) instead of 1 (CPT600)-loaded CPG-pN3 and 1 (CPT600) in solution (short and long acid treatment) as described in example 2. All six experiments were performed side-by-side.

[4] = c(HCl) 0 mM, c(2-nitrobenzhydrazide) 0 mM
[5] = c(HCl) 0 mM, c(2-nitrobenzhydrazide) 1 mM
[6] = c(HCl) 0 mM, c(2-nitrobenzhydrazide) 10 mM
[7] = c(HCl) 1 mM, c(2-nitrobenzhydrazide) 0 mM
[8] = c(HCl) 1 mM, c(2-nitrobenzhydrazide) 1 mM
[9] = c(HCl) 1 mM, c(2-nitrobenzhydrazide) 10 mM
[10] = c(HCl) 10 mM, c(2-nitrobenzhydrazide) 0 mM
[11] = c(HCl) 10 mM, c(2-nitrobenzhydrazide) 1 mM
[12] = c(HCl) 10 mM, c(2-nitrobenzhydrazide) 10 mM
[13] = 1 (CPT600) after UV irradiation and HCl 37 °C 2 h
[14] = In solution, 2 h HCl, BPC + All MS
[15] = In solution, 2 h HCl, UV 254 nm
[16] = On CPG-Ac, 2 h HCl, BPC + All MS
[17] = On CPG-pN3, 2 h HCl, BPC + All MS
[18] = In solution, 0 h HCl, BPC + All MS
[19] = In solution, 0 h HCl, UV 254 nm
[20] = CPG-Ac instead of CPG-pN3, 2 h acidic treatment

Area (MS-peak integration) [2, 13]: 1798498944
Area Frac. % [2, 13]: 27.10%
amount in supernatant of CPG bead samples compared to solution sample (base peak MS peak areas) ([3]; 2 h acidic treatment): 16.1%
Area [3, 14]: 1793367808
Area Frac % [3, 14]: 35.46%
Area [3, 15]: 15.084
Area Frac % [3, 15]: 13.18%
Area [3, 16]: 114680936
Area Frac % [3, 16]: 41.23%
Area [3, 17]: 288188416
Area Frac % [3, 17]: 65.33%
SMILES: C#CCNC(=O)C(CO)(CO)C(=O)NCCCC[C@@H](C(=O)NCCc1ccc(NC(=O)CCCCCCC(=O)O)cc1)[N+](C)(C)C [Compound 7]

Area (MS-peak integration) [2, 13]: 386267200
Area Frac. % [2, 13]: 5.82%
SMILES: C#CCNC(=O)C1(C(=O)NCCCC[C@@H](C(=O)NCCc2ccc(NC(=O)CCCCCCC(=O)O)cc2)[N+](C)(C)C)COC(c2ccc(C(O)C(F)(F)F)cc2)OC1 (stereo partly shown) [Compound 4]

Area (MS-peak integration) [2, 13]: 167125312
Area Frac. % [2, 13]: 2.52%
SMILES: C#CCNC(=O)C1(C(=O)NCCCC[C@@H](C(=O)NCCc2ccc(NC(=O)CCCCCCC(=O)O)cc2)[N+](C)(C)C)COC(c2ccc(C3(C(F)(F)F)N=N3)cc2)OC1 (stereo partly shown) [Compound 2]

Area (MS-peak integration) [2, 13]: 432395200
Area Frac. % [2, 13]: 6.52%
Area (MS-peak integration) ([2]; 1 (CPT600) after UV irradiation, very brief acid (r.t. about 10 s, control)): 3091667200
Area [3, 18]: 2114062848
Area Frac % [3, 18]: 100.00%
Area [3, 19]: 31.679
Area Frac % [3, 19]: 100.00%
SMILES: C#CCNC(=O)C1(C(=O)NCCCC[C@@H](C(=O)NCCc2ccc(NC(=O)CCCCCCC(=O)NO)cc2)[N+](C)(C)C)COC(c2ccc(C(O)C(F)(F)F)cc2)OC1 (stereo partly shown) [Compound 3]

Continued, compound first:

SMILES: CN(N)C(=O)c1ccc(C(O)C(F)(F)F)cc1 (stereo not shown) [Compound 15]
Area/a.u. (LC-MS EIC peak) [1, 4]: 15540301 a.u.
Area/a.u. (LC-MS EIC peak) [1, 5]: 19033696 a.u.
Area/a.u. (LC-MS EIC peak) [1, 6]: 20155070 a.u.
Area/a.u. (LC-MS EIC peak) [1, 7]: 75526584 a.u.
Area/a.u. (LC-MS EIC peak) [1, 8]: 93782304 a.u.
Area/a.u. (LC-MS EIC peak) [1, 9]: 120971320 a.u.
Area/a.u. (LC-MS EIC peak) [1, 10]: 101335752 a.u.
Area/a.u. (LC-MS EIC peak) [1, 11]: 119463976 a.u.
Area/a.u. (LC-MS EIC peak) [1, 12]: 130339744 a.u.

SMILES: Cc1nnc(-c2ccc(CN(CC(=O)NCCCCNc3ncnc4c3ncn4C3OC(CSCC[C@H](N)C(=O)O)C(O)C3O)C(=O)CC/C=N/N(C)C(=O)c3ccc(C(O)C(F)(F)F)cc3)cc2)nn1 (stereo partly shown) [Compound 12]
fraction cleaved ([1]; 1 mM or higher concentration of HCl alone, room temperature, within 1 h): more than 60%
detection of starting material ([1]; 10 mM HCl and 1 mM or 10 mM 2-nitrobenzhydrazide): no longer detected
Area/a.u. (LC-MS EIC peak) [1, 4]: 865231808 a.u.
Area/a.u. (LC-MS EIC peak) [1, 5]: 601044672 a.u.
Area/a.u. (LC-MS EIC peak) [1, 6]: 616590720 a.u.
Area/a.u. (LC-MS EIC peak) [1, 7]: 315121856 a.u.
Area/a.u. (LC-MS EIC peak) [1, 8]: 130056936 a.u.
Area/a.u. (LC-MS EIC peak) [1, 9]: 5361744 a.u.
Area/a.u. (LC-MS EIC peak) [1, 10]: 17781000 a.u.

SMILES: Cc1nnc(-c2ccc(CN(CC(=O)NCCCCNc3ncnc4c3ncn4C3OC(CSCC[C@H](N)C(=O)O)C(O)C3O)C(=O)CC/C=N/NC(=O)c3ccccc3[N+](=O)[O-])cc2)nn1 (stereo partly shown) [Compound 17]
Area/a.u. (LC-MS EIC peak) [1, 5]: 50293356 a.u.
Area/a.u. (LC-MS EIC peak) [1, 6]: 116403456 a.u.
Area/a.u. (LC-MS EIC peak) [1, 8]: 623734464 a.u.
Area/a.u. (LC-MS EIC peak) [1, 9]: 1157550976 a.u.
Area/a.u. (LC-MS EIC peak) [1, 11]: 694334592 a.u.
Area/a.u. (LC-MS EIC peak) [1, 12]: 1188207104 a.u.

SMILES: O=Cc1ccc(C(O)C(F)(F)F)cc1 (stereo not shown) [Compound 6]
amount of cleavage fragment relative to the respective CPG-pN3 sample (UV peak areas) [3, 20]: 8.0%
amount of cleavage fragment relative to the respective sample in solution (UV peak areas) [3, 20]: 3.9%
Area [3, 15]: 63.355
Area Frac % [3, 15]: 55.35%
Area ([3]; On CPG-Ac, 2 h HCl, UV 254 nm): 2.4903
Area Frac % ([3]; On CPG-Ac, 2 h HCl, UV 254 nm): 30.94%
Area ([3]; On CPG-pN3, 2 h HCl, UV 254 nm): 30.9728
Area Frac % ([3]; On CPG-pN3, 2 h HCl, UV 254 nm): 85.18%
amount of cleavage fragment relative to the respective sample in solution (UV peak areas) ([3]; UV-irradiated 1 (CPT600)-loaded CPG-pN3, 2 h acidic treatment): 48.9%
